Marks after values point to notes of the source that are not given here.
Columns and labels:
Topoisomerase II α human = target: T1, Topoisomerase II α human (Homo sapiens, UniProt P11388); assay: Isothermal titration calorimetry (ITC) of interactions with TOPIIα; format: binding; details: single compounds; for ∆G (kJ/mol) ITC / ∆H (kJ/mol) ITC: 36.6 °C, mean ± SD, n = 6
T1 construct: purchased Sigma Aldrich (St. Louis, MO, USA)
Description: The parameters of interactions of coffee and its components with TOPIIα were carried out using the isothermal titration calorimetry (ITC) (MicroCal PEAQ-ITC 200, Malvern, Worcestershire, UK). Analyses were carried out according to Grzelczyk et al., with some modifications. A calorimeter cell with a capacity of 0.2 mL was filled with 0.1 μmol/L of TOPIIα solution in ultrapure water (deionized, LC-MS grade); the syringe was subsequently filled with titrants as degassed aqueous solutions of chlorogenic acids (CHAs); green, light-, or dark-roasted coffee extracts; coffee fraction; before and after in vitro digestion, at concentrations of 10 mmol/L (coffee extracts at concentrations of 0.1 mmol/L calculated based on 5-caffeoylquinic acid). The measurements were carried out at 36.6 °C with continuous stirring at 307 rpm (10 injections, 25 min). During the ITC analysis, an exothermic or endothermic reaction was recorded, when the binding of compounds to the enzyme occurred. The heat was generated as a consequence of ligand-to-protein binding, which is observed as an energy peak (raw data of heat in […]). The titration of a ligand into water was performed to subtract the energetic effects of dilution. The enthalpy changes (∆H), Gibbs free energy changes (∆G), and entropy changes (∆S) were calculated from the ITC titration nonlinear least squares saturation curve fitting carried out using MicroCal PEAQ-ITC200 software 1.30 [40].

human topoisomerase IIα = test system: human topoisomerase IIα; parameters: method as in PMID 18461976; details: 100 μM solutions; cited from earlier work
[1] = listed as 4,5-di-O-caffeoylquinic acid

T1 sequence (P11388 whole entry): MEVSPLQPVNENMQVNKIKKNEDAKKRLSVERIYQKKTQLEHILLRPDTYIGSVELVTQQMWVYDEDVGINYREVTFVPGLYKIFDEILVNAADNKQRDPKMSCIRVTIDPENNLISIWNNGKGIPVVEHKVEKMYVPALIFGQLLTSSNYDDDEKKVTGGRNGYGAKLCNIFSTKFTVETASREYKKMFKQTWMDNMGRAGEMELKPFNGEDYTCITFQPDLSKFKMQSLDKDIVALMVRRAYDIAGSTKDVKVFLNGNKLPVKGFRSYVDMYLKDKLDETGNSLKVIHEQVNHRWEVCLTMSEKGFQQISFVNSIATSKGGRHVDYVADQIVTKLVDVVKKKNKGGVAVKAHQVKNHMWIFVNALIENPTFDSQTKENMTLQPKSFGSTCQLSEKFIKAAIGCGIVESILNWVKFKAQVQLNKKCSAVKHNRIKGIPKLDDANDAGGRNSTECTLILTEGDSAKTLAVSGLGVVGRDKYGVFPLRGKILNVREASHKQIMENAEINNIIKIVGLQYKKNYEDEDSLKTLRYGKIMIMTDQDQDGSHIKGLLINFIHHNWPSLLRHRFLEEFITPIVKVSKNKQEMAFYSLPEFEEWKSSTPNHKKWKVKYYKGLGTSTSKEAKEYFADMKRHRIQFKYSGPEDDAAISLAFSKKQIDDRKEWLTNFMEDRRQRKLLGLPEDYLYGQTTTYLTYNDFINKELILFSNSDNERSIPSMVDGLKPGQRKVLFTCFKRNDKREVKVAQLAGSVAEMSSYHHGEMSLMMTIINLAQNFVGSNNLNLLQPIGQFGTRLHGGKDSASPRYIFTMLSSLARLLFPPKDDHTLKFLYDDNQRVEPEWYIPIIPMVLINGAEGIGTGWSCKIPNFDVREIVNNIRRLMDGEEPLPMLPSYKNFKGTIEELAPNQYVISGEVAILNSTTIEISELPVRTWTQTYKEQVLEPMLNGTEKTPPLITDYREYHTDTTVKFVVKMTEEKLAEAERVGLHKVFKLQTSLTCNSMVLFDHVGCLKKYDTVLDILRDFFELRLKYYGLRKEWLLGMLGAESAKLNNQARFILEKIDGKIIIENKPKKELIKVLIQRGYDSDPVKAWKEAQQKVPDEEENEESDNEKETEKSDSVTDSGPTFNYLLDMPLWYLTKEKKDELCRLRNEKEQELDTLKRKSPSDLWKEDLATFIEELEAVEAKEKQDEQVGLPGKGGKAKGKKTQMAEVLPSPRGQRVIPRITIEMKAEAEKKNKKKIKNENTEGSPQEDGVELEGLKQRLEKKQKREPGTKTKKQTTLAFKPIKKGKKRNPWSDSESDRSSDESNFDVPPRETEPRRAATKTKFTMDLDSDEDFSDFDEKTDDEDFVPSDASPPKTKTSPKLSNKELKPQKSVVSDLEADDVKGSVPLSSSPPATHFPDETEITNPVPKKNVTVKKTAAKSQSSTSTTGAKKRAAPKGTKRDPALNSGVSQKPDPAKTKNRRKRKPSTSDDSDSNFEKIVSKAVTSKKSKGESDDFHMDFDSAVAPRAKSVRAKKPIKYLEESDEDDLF

∆G (kJ/mol) ITC (Topoisomerase II α human)	∆H (kJ/mol) ITC (Topoisomerase II α human)	Structure (SMILES)	mode of action on human topoisomerase IIα (human topoisomerase IIα)	other results
−34.42 ± 1.33 ^d kJ/mol	−6.49 ± 0.29 ^e kJ/mol	O=C(O)CCc1ccc(O)c(O)c1 [Dihydrocaffeic acid]		
−37.64 ± 1.35 ^c kJ/mol	−1.78 ± 0.15 ^d kJ/mol	O=C(C=Cc1ccc(O)c(O)c1)OC1CC(O)(C(=O)O)CC(O)C1OC(=O)C=Cc1ccc(O)c(O)c1 (centres unmarked) [4,5-Di-O-caffeoylquinic acid]		∆G (kJ/mol) ITC (Topoisomerase II α human; [1]): -37.64 kJ/mol; ∆H (kJ/mol) ITC (Topoisomerase II α human; [1]): -1.78 kJ/mol
−33.54 ± 1.09 ^a kJ/mol	−9.04 ± 0.25 ^a kJ/mol	O=C(O)/C=C/c1ccc(O)c(O)c1 [Caffeic acid]		
−33.87 ± 1.39 ^a kJ/mol	−8.00 ± 0.45 ^c,a kJ/mol	O=C(C=Cc1ccc(O)c(O)c1)OC1CC(O)(C(=O)O)CC(OC(=O)C=Cc2ccc(O)c(O)c2)C1O (centres unmarked) [3,5-Di-O-caffeoylquinic acid]		
		C=CC(N)=O [Acrylamide]		interactions with TOPIIα in ITC measurements (Topoisomerase II α human): did not show significant interactions
		O=c1c(O)c(-c2ccc(O)c(O)c2)oc2cc(O)cc(O)c12 [quercetin]	redox-dependent poisons rather than the enzyme inhibitors	
		O=Cc1ccc(CO)o1 [5-(Hydroxymethyl)furfural]		interactions with TOPIIα in ITC measurements (Topoisomerase II α human): did not show significant interactions
		O=c1c(O)c(-c2cc(O)c(O)c(O)c2)oc2cc(O)cc(O)c12 [myricetin]	redox-dependent poisons rather than the enzyme inhibitors	
		O=c1c(O)c(-c2ccc(O)cc2)oc2cc(O)cc(O)c12 [kaempferol]	redox-dependent poisons rather than the enzyme inhibitors	

Structure (SMILES)	∆G (kJ/mol) ITC (Topoisomerase II α human)	∆H (kJ/mol) ITC (Topoisomerase II α human)	mode of action on human topoisomerase IIα (human topoisomerase IIα)	other results
Cn1c(=O)c2c(ncn2C)n(C)c1=O [Caffeine, reference compound]	−34.50 ± 1.15 ^d kJ/mol	−6.28 ± 0.45 ^e kJ/mol		

Reference: publication PMC10457778, “Effects of In Vitro Digestion of Polyphenols from Coffee on Binding Parameters to Human Topoisomerase II α” (Molecules, 2023)
